Earlier results on one compound are cited in patent publication US20020032188A1, “Compositions and methods for treatment of anal fissure” (priority 2000, published 2002).

For this data set the following is noted: topical ISDN.

In the case of `O=[N+]([O-])O[C@H]1CO[C@H]2[C@@H]1OC[C@H]2O[N+](=O)[O-]` [ISDN, isosorbide dinitrate], the “treatment of chronic anal fissure, result reported” value is “effective treatment for chronic anal fissure”.
